Results reported in patent US20250353891A1 (MEDIMMUNE LIMITED, priority 2022, published 2025).
Read-outs that look alike come from different tables or passages of the source. Starred links: 1 amine or outer side, 2 acyl side, 3 side chain; linkers in the order of their positions; H or OH if unused. Non-standard residues stand in square brackets, D forms with d. Residues, ends and D or L forms follow the SMILES beside them. Groups on a side chain read outwards from the residue. *: point of attachment. C20 diacid = O=C(O)CCCCCCCCCCCCCCCCCCC(=O)*; C18 diacid = O=C(O)CCCCCCCCCCCCCCCCC(=O)*; γGlu = O=C(O)[C@H](CCC(=O)[*:2])N[*:1]; αMeF = C[C@](N)(Cc1ccccc1)C(=O)O; AEEA = NCCOCCOCC(=O)O; Aib = CC(C)(N)C(=O)O

Columns and labels:
[1] = target: human GLP-1 receptor (hGLP-1R) (Homo sapiens, UniProt P43220); assay: cAMP production (HTRF) in CHO cells expressing hGLP-1R; format: cell-based; design: expressed in transfected cells; conditions: for EC50: geometric mean, read-out: hGLP-1R EC50; for % Relative Potency Ratio: % GLP-1R activity relative to GLP-1 / % GlucR activity relative to glucagon
Chain of human GLP-1 receptor (hGLP-1R) (P43220 24-463): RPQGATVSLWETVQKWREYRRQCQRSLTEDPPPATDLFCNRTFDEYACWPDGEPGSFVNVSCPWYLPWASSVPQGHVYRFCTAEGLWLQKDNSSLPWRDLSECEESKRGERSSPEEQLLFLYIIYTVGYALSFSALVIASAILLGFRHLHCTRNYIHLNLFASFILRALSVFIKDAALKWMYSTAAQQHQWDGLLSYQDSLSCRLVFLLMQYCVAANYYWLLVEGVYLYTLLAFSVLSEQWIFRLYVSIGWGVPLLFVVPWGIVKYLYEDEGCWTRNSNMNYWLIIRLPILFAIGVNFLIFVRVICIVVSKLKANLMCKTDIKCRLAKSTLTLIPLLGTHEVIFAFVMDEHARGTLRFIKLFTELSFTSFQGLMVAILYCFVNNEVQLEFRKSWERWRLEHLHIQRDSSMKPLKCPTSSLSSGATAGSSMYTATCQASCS
How it was run: (§1)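 Read-out: HTRF cAMP (anti-cAMP cryptate donor, cAMP-d2 acceptor in conjugate/lysis buffer), converted to % Delta F and fitted by 4-parameter logistic for EC50. Cell densities were 1×10^5 cells/mL (hGLP-1R) or 2×10^5 cells/mL (hGCGR). Stimulation lasted 30 min at room temperature.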

[2] = target: human glucagon receptor (hGCGR) (Homo sapiens, UniProt P47871); assay: cAMP production (HTRF) in CHO cells expressing hGCGR; format: cell-based; design: expressed in transfected cells; conditions: geometric mean, read-out: hGluc-R EC50
Chain of human glucagon receptor (hGCGR) (P47871 26-477): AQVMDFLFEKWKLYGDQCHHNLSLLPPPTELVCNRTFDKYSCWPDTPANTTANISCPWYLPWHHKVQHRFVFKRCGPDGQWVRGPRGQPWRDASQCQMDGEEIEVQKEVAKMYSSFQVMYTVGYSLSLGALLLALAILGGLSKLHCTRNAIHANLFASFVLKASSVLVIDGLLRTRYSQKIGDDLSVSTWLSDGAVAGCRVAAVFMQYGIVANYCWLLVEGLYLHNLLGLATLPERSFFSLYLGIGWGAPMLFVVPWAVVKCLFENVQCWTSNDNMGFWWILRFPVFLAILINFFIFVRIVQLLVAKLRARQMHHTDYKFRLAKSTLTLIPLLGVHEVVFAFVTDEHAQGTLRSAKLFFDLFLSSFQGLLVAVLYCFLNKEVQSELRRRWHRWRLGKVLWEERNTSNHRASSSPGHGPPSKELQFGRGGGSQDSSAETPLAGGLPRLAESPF
How it was run: as §1

[3] = Proteolytic resistance to FasSSGF containing porcine pancreatic pepsin; format: in vitro ADME; conditions: pig, simulated gastric fluid
Protocol: Stimulated Gastric Fluid (FasSSGF) Containing Porcine Pancreatic Pepsin Lyophilized porcine pancreatic pepsin (Sigma: P7012) was reconstituted to 0.5 mg/mL (˜2500 units/mL) in freshly prepared FasSSGF (Biorelevant media) to give the enzyme stock solution. Peptide stock solution was prepared to a concentration of 250 μM (˜1.0 mg/mL) in FasSSGF. 200 μL ([…], ˜250 units) of pepsin stock solution was added to 200 μL of peptide solution (1.0 mg/mL, ˜100 μg of peptide, ˜25 nmoles) and the mixture was co-incubated in a temperature-regulated incubator at 37° C. for the duration of the experiment. 30 μL aliquot of the peptide-enzyme mixture was periodically withdrawn (t=0, 5, 10, 15, and 30 min) and quenched immediately by addition of 80 μL of 0.1M ammonium bicarbonate solution in water/acetonitrile (4:1, pH 8) to arrest proteolytic activity. 30 μL aliquot was analyzed by analytical RP-HPLC. Analytical RP-HPLC method: Agilent Polaris C8-A column (4.6×100 mm, 3 micron) eluted with a linear binary gradient of 10-90% MeCN (0.1% TFA v/v) in water (0.1% TFA v/v) over either 10 or 15 mins at 1.5 mL min-1 at 40° C. with detection by UV absorption at 210 nm. Manual integration (AUC) allowed estimation of remaining intact peptide over the time course of the experiment.

recombinant Neprilysin = target: T1, recombinant Neprilysin (Homo sapiens, UniProt P08473); assay: Proteolytic resistance to neprilysin; format: in vitro ADME; conditions: pH 8.3; for remaining at 4 h / remaining at 24 h: isolated enzyme neprilysin
T1 construct: purchased R&D Systems 1182-ZNC-010
T1 sequence (P08473 52-750 limits assumed): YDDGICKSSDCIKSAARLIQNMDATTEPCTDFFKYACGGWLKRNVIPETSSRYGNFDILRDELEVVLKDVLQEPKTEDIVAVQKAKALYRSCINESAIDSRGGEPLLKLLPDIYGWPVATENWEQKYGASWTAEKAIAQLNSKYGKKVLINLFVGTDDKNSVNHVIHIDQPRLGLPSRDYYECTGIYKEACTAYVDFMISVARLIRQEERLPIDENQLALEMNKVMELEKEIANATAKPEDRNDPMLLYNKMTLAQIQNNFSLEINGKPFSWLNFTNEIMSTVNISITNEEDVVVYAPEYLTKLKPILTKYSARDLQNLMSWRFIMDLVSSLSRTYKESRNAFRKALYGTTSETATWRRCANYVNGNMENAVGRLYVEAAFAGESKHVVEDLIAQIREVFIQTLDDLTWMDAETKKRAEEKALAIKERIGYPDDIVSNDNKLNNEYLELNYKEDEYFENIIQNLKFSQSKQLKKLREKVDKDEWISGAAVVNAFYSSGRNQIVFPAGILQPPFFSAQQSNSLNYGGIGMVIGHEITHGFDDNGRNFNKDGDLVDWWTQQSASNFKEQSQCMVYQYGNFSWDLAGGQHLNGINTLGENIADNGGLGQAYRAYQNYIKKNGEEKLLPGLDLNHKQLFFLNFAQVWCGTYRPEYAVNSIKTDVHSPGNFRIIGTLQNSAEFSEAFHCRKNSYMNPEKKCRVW
Protocol: 10.0 μg (˜10 units) recombinant Neprilysin (R&D Systems: 1182-ZNC-010) was reconstituted to 100 μL (100 μg/mL, ˜100 units/mL) in assay buffer (50 mM Tris, 50 mM NaCl, 50 mM NaHCO3, adjusted to pH 8.3) to give the enzyme stock solution. Peptide stock solutions were prepared to a concentration of ˜250 μM (˜1.0 mg/mL of 4 kDa peptide) in assay buffer. 100 μL (10 μg, ˜10 units) of neprilysin stock solution was added to 100 μL of peptide stock solution (1.0 mg/mL, ˜100 μg of peptide) and the mixture was co-incubated in a temperature regulated incubator at 37° C. for the duration of the experiment. 25 μL aliquots (˜ 12.5 μg initial peptide) of the peptide-enzyme mixture were periodically withdrawn (t=0, 30 mins, 1 h, 2 h, 4 h and 24 h) and quenched immediately by addition to an equal volume ([…]) of 10% TFA (v/v) in 1:1 water/acetonitrile to arrest proteolytic activity. The quenched aliquot centrifuged at 7800 rpm, and 30 μL of the supernatant was analyzed by analytical RP-HPLC as follows: Analytical RP-HPLC method: Agilent Polaris C8-A column (4.6×100 mm, 3 micron) eluted with a linear binary gradient of 10-90% MeCN (0.1% TFA v/v) in water (0.1% TFA v/v) over either 10 or 15 mins at 1.5 mL min-1 at 40° C. with detection by UV absorption at 210 nm. Manual integration (AUC) allowed estimation of remaining intact peptide over the time course of the experiment.

[4] = Table 7, peptides modified at position 20, cAMP in CHO hGLP-1R cells
[5] = Table 7, peptides modified at position 20, cAMP in CHO hGCGR cells

Row | SMILES | EC50 ([1]; Table 6, peptides modified at position 17, cAMP in CHO hGLP-1R cells) [nM] | % Relative Potency Ratio ([1]; Table 6) | EC50 ([2]; Table 6, peptides modified at position 17, cAMP in CHO hGCGR cells) [nM] | remaining at 0.25 h, 125 µM [3] [%] | remaining at 0.5 h, 125 µM [3] [%] | remaining at 4 h (recombinant Neprilysin) [%] | remaining at 24 h (recombinant Neprilysin) [%] | % intact peptide over time (recombinant Neprilysin) [%] | EC50 [1, 4] [nM] | % Relative Potency Ratio ([1]; Table 7) | EC50 [2, 5] [nM] | % Relative Potency Ratio [1] | EC50 ([1]; cAMP, CHO cells, 0.1% BSA) [nM] | EC50 ([2]; cAMP, CHO cells, 0.1% BSA) [nM]
1 | CC[C@H](C)[C@H](NC(=O)C(C)(C)NC(=O)[C@H](CCC(=O)O)NC(=O)[C@@H](NC(=O)[C@](C)(Cc1ccccc1)NC(=O)[C@H](CC(=O)O)NC(=O)[C@H](CCCNC(=N)N)NC(=O)[C@H](C)NC(=O)[C@H](C)NC(=O)[C@H](CCCCNC(=O)COCCOCCNC(=O)COCCOCCNC(=O)CC[C@H](NC(=O)CCCCCCCCCCCCCCCCC(=O)O)C(=O)O)NC(=O)[C@H](CO)NC(=O)[C@H](CC(=O)O)NC(=O)[C@H](CC(C)C)NC(=O)[C@](C)(Cc1ccccc1)NC(=O)[C@H](CCCCN)NC(=O)[C@H](CO)NC(=O)[C@@H](NC(=O)[C@H](CC(=O)O)NC(=O)[C@H](CO)NC(=O)[C@@H](NC(=O)[C@](C)(Cc1ccccc1)NC(=O)[C@H](CO)NC(=O)CNC(=O)[C@H](Cc1c[nH]cn1)NC(=O)C(C)(C)NC(=O)[C@@H](N)Cc1c[nH]cn1)[C@@H](C)O)C(C)C)C(C)C)C(=O)N[C@@H](C)C(=O)N[C@@H](CC(N)=O)C(=O)N[C@H](C(N)=O)[C@@H](C)O [Peptide 15] (H-H[Aib]HGS[αMeF]TSDVSK[αMeF]LDSK([AEEA-AEEA-γGlu-C18 diacid])AARD[αMeF]VE[Aib]IANT-NH2; N-terminus assumed) | 0.0331 | 3.7 | 0.0614 | 91 | 77 | 100 | 83 | 100 |  |  |  |  |  | 
2 | CC[C@H](C)[C@H](NC(=O)C(C)(C)NC(=O)[C@H](CCC(N)=O)NC(=O)[C@@H](NC(=O)[C@](C)(Cc1ccccc1)NC(=O)[C@H](CC(=O)O)NC(=O)[C@H](CCCCNC(=O)COCCOCCNC(=O)COCCOCCNC(=O)CC[C@H](NC(=O)CC[C@H](NC(=O)CCCCCCCCCCCCCCCCCCC(=O)O)C(=O)O)C(=O)O)NC(=O)[C@H](C)NC(=O)[C@H](C)NC(=O)[C@H](CCCNC(=N)N)NC(=O)[C@H](CO)NC(=O)[C@H](CC(=O)O)NC(=O)[C@H](CC(C)C)NC(=O)[C@](C)(Cc1ccccc1)NC(=O)[C@H](CCCCN)NC(=O)[C@H](CO)NC(=O)[C@@H](NC(=O)[C@H](CC(=O)O)NC(=O)[C@H](CO)NC(=O)[C@@H](NC(=O)[C@H](Cc1ccccc1)NC(=O)[C@H](CO)NC(=O)CNC(=O)[C@H](Cc1c[nH]cn1)NC(=O)C(C)(C)NC(=O)[C@@H](N)Cc1c[nH]cn1)[C@@H](C)O)C(C)C)C(C)C)C(=O)N[C@@H](C)C(=O)N[C@@H](CC(N)=O)C(=O)N[C@H](C(N)=O)[C@@H](C)O [Peptide 282] (H-H[Aib]HGSFTSDVSK[αMeF]LDSRAAK([AEEA-AEEA-γGlu-γGlu-C20 diacid])D[αMeF]VQ[Aib]IANT-NH2) |  |  |  | 83 | 76 | 100 | 97 | 100 | 1.23 | 1.8 | 1.14 |  |  | 
3 | CC[C@H](C)[C@H](NC(=O)C(C)(C)NC(=O)[C@H](CCC(N)=O)NC(=O)[C@@H](NC(=O)[C@](C)(Cc1ccccc1)NC(=O)[C@H](CC(=O)O)NC(=O)[C@H](CCCCNC(=O)COCCOCCNC(=O)COCCOCCNC(=O)CC[C@H](NC(=O)CC[C@H](NC(=O)CCCCCCCCCCCCCCCCCCC(=O)O)C(=O)O)C(=O)O)NC(=O)[C@H](C)NC(=O)[C@H](C)NC(=O)[C@H](CCCNC(=N)N)NC(=O)[C@H](CO)NC(=O)[C@H](CC(=O)O)NC(=O)[C@H](CC(C)C)NC(=O)[C@H](Cc1ccc(O)cc1)NC(=O)[C@H](CCCCN)NC(=O)[C@H](CO)NC(=O)[C@@H](NC(=O)[C@H](CC(=O)O)NC(=O)[C@H](CO)NC(=O)[C@@H](NC(=O)[C@](C)(Cc1ccccc1)NC(=O)[C@H](CO)NC(=O)CNC(=O)[C@H](Cc1c[nH]cn1)NC(=O)C(C)(C)NC(=O)[C@@H](N)Cc1c[nH]cn1)[C@@H](C)O)C(C)C)C(C)C)C(=O)N[C@@H](C)C(=O)N[C@@H](CC(N)=O)C(=O)N[C@H](C(N)=O)[C@@H](C)O [Peptide 283] (H-H[Aib]HGS[αMeF]TSDVSKYLDSRAAK([AEEA-AEEA-γGlu-γGlu-C20 diacid])D[αMeF]VQ[Aib]IANT-NH2) |  |  |  | 68 | 48 | 81 | 63 | 100 | 0.129 | 8.4 | 0.552 |  |  | 
4 | CC[C@H](C)[C@H](NC(=O)[C@H](Cc1c[nH]c2ccccc12)NC(=O)[C@H](CCC(N)=O)NC(=O)[C@@H](NC(=O)[C@H](Cc1ccccc1)NC(=O)[C@H](CC(=O)O)NC(=O)[C@H](CCCCNC(=O)COCCOCCNC(=O)COCCOCCNC(=O)CC[C@H](NC(=O)CC[C@H](NC(=O)CCCCCCCCCCCCCCCCCCC(=O)O)C(=O)O)C(=O)O)NC(=O)[C@H](C)NC(=O)[C@H](C)NC(=O)[C@H](CCCNC(=N)N)NC(=O)[C@H](CO)NC(=O)[C@H](CC(=O)O)NC(=O)[C@H](CC(C)C)NC(=O)[C@](C)(Cc1ccccc1)NC(=O)[C@H](CCCCN)NC(=O)[C@H](CO)NC(=O)[C@@H](NC(=O)[C@H](CC(=O)O)NC(=O)[C@H](CO)NC(=O)[C@@H](NC(=O)[C@H](Cc1ccccc1)NC(=O)[C@H](CO)NC(=O)CNC(=O)[C@H](Cc1c[nH]cn1)NC(=O)C(C)(C)NC(=O)[C@@H](N)Cc1c[nH]cn1)[C@@H](C)O)C(C)C)C(C)C)C(=O)N[C@@H](C)C(=O)N[C@@H](CC(N)=O)C(=O)N[C@H](C(N)=O)[C@@H](C)O [Peptide 290] (H-H[Aib]HGSFTSDVSK[αMeF]LDSRAAK([AEEA-AEEA-γGlu-γGlu-C20 diacid])DFVQWIANT-NH2) |  |  |  | 0 | 0 |  |  | 100 |  |  |  |  |  | 
5 | CC[C@H](C)[C@H](NC(=O)[C@H](Cc1c[nH]c2ccccc12)NC(=O)[C@H](CCCCNC(=O)COCCOCCNC(=O)COCCOCCNC(=O)CC[C@H](NC(=O)CCCCCCCCCCCCCCCCCCC(=O)O)C(=O)O)NC(=O)[C@@H](NC(=O)[C@H](Cc1ccccc1)NC(=O)[C@H](CC(=O)O)NC(=O)[C@H](CCC(N)=O)NC(=O)[C@H](C)NC(=O)[C@H](C)NC(=O)[C@H](CCCNC(=N)N)NC(=O)[C@H](CO)NC(=O)[C@H](CC(=O)O)NC(=O)[C@H](CC(C)C)NC(=O)[C@](C)(Cc1ccccc1)NC(=O)[C@H](CCCCN)NC(=O)[C@H](CO)NC(=O)[C@@H](NC(=O)[C@H](CC(=O)O)NC(=O)[C@H](CO)NC(=O)[C@@H](NC(=O)[C@](C)(Cc1ccccc1)NC(=O)[C@H](CO)NC(=O)CNC(=O)[C@H](Cc1c[nH]cn1)NC(=O)C(C)(C)NC(=O)[C@@H](N)Cc1c[nH]cn1)[C@@H](C)O)C(C)C)C(C)C)C(=O)N[C@@H](C)C(=O)N[C@@H](CC(N)=O)C(=O)N[C@H](C(N)=O)[C@@H](C)O [Peptide 367] (H-H[Aib]HGS[αMeF]TSDVSK[αMeF]LDSRAAQDFVK([AEEA-AEEA-γGlu-C20 diacid])WIANT-NH2; N-terminus assumed) |  |  |  | 0 | 0 |  |  |  |  |  |  | 1.0 | 0.139 | 0.0724
